# Reference: patent US20110105623A1 (Biogenic Innovations, LLC, priority 2009, published 2011)
# “Also recorded” adds a separate entry of the source.
# Experiments:
# [1] = system: ATCC strain 8739 Escherichia coli; test: Bromcresol Purple color change with MSM; format: cell-based
# Experimental: To investigate whether MSM functions as a carrier/transporter, the ability of MSM to transport Bromcresol into the E. coli was evaluated. Bromcresol Purple is an indicator dye that turns yellow in the presence of E. coli bacteria. It is non-toxic to the organism. […] All concentrations were plated out to 10^−7 dilutions to ascertain the log reduction.
# Flake OptiMSM was weighed out using a certified Mettler Toledo AG245 balance SN: 1115210833 and aliquoted for each concentration. […] Tubes were cooled to room temperature which was approximately 20° C. All tubes were then spiked with the same dilution of Escherichia coli that gave a level of colony forming units at 6.0×10^6/mL (6.8). The tubes were then incubated at 25° C. Daily observation for color change was performed during the first seven days. The tubes were mixed periodically to ensure that the OptiMSM was well equilibrated at all times. A positive and negative control was ascertained.
# [2] = system: Bifidobacterium bifidum; test: Probiotic growth in media supplemented with MSM; format: cell-based; design: unit not given here
# Text: (§1) Plates were then counted. […] Data are presented in Cfu/mL.
# [3] = system: Lactobacillus delbrueckii (Lactobacillus bulgaricus); test: Probiotic growth in media supplemented with MSM; format: cell-based; design: unit not given here
# Text: as §1
# [4] = system: Lactobacillus acidophilus ATCC #4356; test: Growth and recovery in simulated intestinal tract environment
# Experimental: The pH of the simulated intestinal fluid was 6.8. The microorganisms analyzed included Lactobacillus acidophilus ATCC #4356:
# For the Lactobacillus acidophilus, bottled milk was used as the product. One milliliter of a 9 log solution of organism was placed into a 99 mL of bottled milk and mixed by hand shaking. […] The gastric acid was pre-warmed to 35° C. and kept at 35° C. for the duration of the 20 minutes. At the end of the 20 minute period, 10 mL of the simulated gastric acid, Lactobacillus acidophilus and milk mixture was placed into 90 mL of simulated intestinal fluid. The simulated intestinal fluid was pre-warmed to 35° C. and kept at 35° C. during the duration of the study.
substance,measurement,setting,value
Methylsulfonylmethane [MSM],color change of the broth,"[1]; 5-7% MSM, Day one",color change of the broth to yellow
same,color change of the broth,"[1]; 8% MSM, Day one, Day three",slight clearing of color; also recorded: turning to the typical yellow color
same,color change of the broth,"[1]; 9% MSM, Day 7",turning to a yellow color
same,color change of the broth,"[1]; 10%-16% MSM, Day 7, 14, 30",No color change; also recorded: no signs of change
same,"organism recovery, streaked on MacConkey agar","[1]; concentration tubes 10%-16% MSM, 72 hour incubation",No organisms were observed
same,Growth of Bifidobacteruim bifidum,"[2]; 0.125% MSM, 0 h",1.64
same,Growth of Bifidobacteruim bifidum,"[2]; 0.125% MSM, 8 h",1.73
same,Growth of Bifidobacteruim bifidum,"[2]; 0.125% MSM, 16 h",6.55
same,Growth of Bifidobacteruim bifidum,"[2]; 0.125% MSM, 24 h",2.70
same,Growth of Bifidobacteruim bifidum,"[2]; 0.125% MSM, 32 h",3.37
same,Growth of Bifidobacteruim bifidum,"[2]; 0.125% MSM, 40 h",4.19
same,Growth of Bifidobacteruim bifidum,"[2]; 0.125% MSM, 48 h",6.41
same,Growth of Bifidobacteruim bifidum,"[2]; 0.125% MSM, 56 h",9.97
same,Growth of Bifidobacteruim bifidum,"[2]; 0.125% MSM, 64 h",11.34
same,Growth of Bifidobacteruim bifidum,"[2]; 0.125% MSM, 72 h",10.00
same,Growth of Bifidobacteruim bifidum,"[2]; 0.2% MSM, 0 h",1.82
same,Growth of Bifidobacteruim bifidum,"[2]; 0.2% MSM, 8 h",2.08
same,Growth of Bifidobacteruim bifidum,"[2]; 0.2% MSM, 16 h",5.22
same,Growth of Bifidobacteruim bifidum,"[2]; 0.2% MSM, 24 h",6.15
same,Growth of Bifidobacteruim bifidum,"[2]; 0.2% MSM, 32 h",5.03
same,Growth of Bifidobacteruim bifidum,"[2]; 0.2% MSM, 40 h",8.14
same,Growth of Bifidobacteruim bifidum,"[2]; 0.2% MSM, 48 h",8.55
same,Growth of Bifidobacteruim bifidum,"[2]; 0.2% MSM, 56 h",9.00
same,Growth of Bifidobacteruim bifidum,"[2]; 0.2% MSM, 64 h",10.19
same,Growth of Bifidobacteruim bifidum,"[2]; 0.2% MSM, 72 h",9.10
same,Growth of Bifidobacteruim bifidum,"[2]; 0.50% MSM, 0 h",1.85
same,Growth of Bifidobacteruim bifidum,"[2]; 0.50% MSM, 8 h",1.99
same,Growth of Bifidobacteruim bifidum,"[2]; 0.50% MSM, 16 h",6.53
same,Growth of Bifidobacteruim bifidum,"[2]; 0.50% MSM, 24 h",3.14
same,Growth of Bifidobacteruim bifidum,"[2]; 0.50% MSM, 32 h",3.52
same,Growth of Bifidobacteruim bifidum,"[2]; 0.50% MSM, 40 h",4.62
same,Growth of Bifidobacteruim bifidum,"[2]; 0.50% MSM, 48 h",4.51
same,Growth of Bifidobacteruim bifidum,"[2]; 0.50% MSM, 56 h",6.05
same,Growth of Bifidobacteruim bifidum,"[2]; 0.50% MSM, 64 h",9.55
same,Growth of Bifidobacteruim bifidum,"[2]; 0.50% MSM, 72 h",7.52
same,Growth of Bifidobacteruim bifidum,"[2]; 1% MSM, 0 h",1.48
same,Growth of Bifidobacteruim bifidum,"[2]; 1% MSM, 8 h",1.70
same,Growth of Bifidobacteruim bifidum,"[2]; 1% MSM, 16 h",6.81
same,Growth of Bifidobacteruim bifidum,"[2]; 1% MSM, 24 h",2.75
same,Growth of Bifidobacteruim bifidum,"[2]; 1% MSM, 32 h",3.37
same,Growth of Bifidobacteruim bifidum,"[2]; 1% MSM, 40 h",3.48
same,Growth of Bifidobacteruim bifidum,"[2]; 1% MSM, 48 h",3.90
same,Growth of Bifidobacteruim bifidum,"[2]; 1% MSM, 56 h",8.32
same,Growth of Bifidobacteruim bifidum,"[2]; 1% MSM, 64 h",8.02
same,Growth of Bifidobacteruim bifidum,"[2]; 1% MSM, 72 h",9.52
same,Growth of Bifidobacteruim bifidum,"[2]; 5% MSM, 0 h",1.00
same,Growth of Bifidobacteruim bifidum,"[2]; 5% MSM, 8 h",2.29
same,Growth of Bifidobacteruim bifidum,"[2]; 5% MSM, 16 h",6.71
same,Growth of Bifidobacteruim bifidum,"[2]; 5% MSM, 24 h",5.72
same,Growth of Bifidobacteruim bifidum,"[2]; 5% MSM, 32 h",10.32
same,Growth of Bifidobacteruim bifidum,"[2]; 5% MSM, 40 h",12.02
same,Growth of Bifidobacteruim bifidum,"[2]; 5% MSM, 48 h",10.54
same,Growth of Bifidobacteruim bifidum,"[2]; 5% MSM, 56 h",10.92
same,Growth of Bifidobacteruim bifidum,"[2]; 5% MSM, 64 h",12.04
same,Growth of Bifidobacteruim bifidum,"[2]; 5% MSM, 72 h",12.43
same,Growth of Bifidobacteruim bifidum,"[2]; […] MSM, 0 h",1.64
same,Growth of Bifidobacteruim bifidum,"[2]; […] MSM, 8 h",1.60
same,Growth of Bifidobacteruim bifidum,"[2]; […] MSM, 16 h",6.21
same,Growth of Bifidobacteruim bifidum,"[2]; […] MSM, 24 h",2.52
same,Growth of Bifidobacteruim bifidum,"[2]; […] MSM, 32 h",3.37
same,Growth of Bifidobacteruim bifidum,"[2]; […] MSM, 40 h",3.52
same,Growth of Bifidobacteruim bifidum,"[2]; […] MSM, 48 h",3.95
same,Growth of Bifidobacteruim bifidum,"[2]; […] MSM, 56 h",8.35
same,Growth of Bifidobacteruim bifidum,"[2]; […] MSM, 64 h",8.30
same,Growth of Bifidobacteruim bifidum,"[2]; […] MSM, 72 h",10.12
same,Growth of Lactobacillus bulgaricus,"[3]; 0.125% MSM, 0 h",2.29
same,Growth of Lactobacillus bulgaricus,"[3]; 0.125% MSM, 8 h",4.15
same,Growth of Lactobacillus bulgaricus,"[3]; 0.125% MSM, 16 h",8.22
same,Growth of Lactobacillus bulgaricus,"[3]; 0.125% MSM, 24 h",9.04
same,Growth of Lactobacillus bulgaricus,"[3]; 0.125% MSM, 32 h",8.55
same,Growth of Lactobacillus bulgaricus,"[3]; 0.125% MSM, 40 h",9.29
same,Growth of Lactobacillus bulgaricus,"[3]; 0.125% MSM, 48 h",10.94
same,Growth of Lactobacillus bulgaricus,"[3]; 0.125% MSM, 56 h",8.00
same,Growth of Lactobacillus bulgaricus,"[3]; 0.125% MSM, 64 h",8.59
same,Growth of Lactobacillus bulgaricus,"[3]; 0.125% MSM, 72 h",6.74
same,Growth of Lactobacillus bulgaricus,"[3]; 0.2% MSM, 0 h",2.25
same,Growth of Lactobacillus bulgaricus,"[3]; 0.2% MSM, 8 h",4.08
same,Growth of Lactobacillus bulgaricus,"[3]; 0.2% MSM, 16 h",8.34
same,Growth of Lactobacillus bulgaricus,"[3]; 0.2% MSM, 24 h",9.10
same,Growth of Lactobacillus bulgaricus,"[3]; 0.2% MSM, 32 h",9.60
same,Growth of Lactobacillus bulgaricus,"[3]; 0.2% MSM, 40 h",9.11
same,Growth of Lactobacillus bulgaricus,"[3]; 0.2% MSM, 48 h",11.07
same,Growth of Lactobacillus bulgaricus,"[3]; 0.2% MSM, 56 h",8.79
same,Growth of Lactobacillus bulgaricus,"[3]; 0.2% MSM, 64 h",8.79
same,Growth of Lactobacillus bulgaricus,"[3]; 0.2% MSM, 72 h",6.72
same,Growth of Lactobacillus bulgaricus,"[3]; 0.50% MSM, 0 h",2.23
same,Growth of Lactobacillus bulgaricus,"[3]; 0.50% MSM, 8 h",4.42
same,Growth of Lactobacillus bulgaricus,"[3]; 0.50% MSM, 16 h",8.28
same,Growth of Lactobacillus bulgaricus,"[3]; 0.50% MSM, 24 h",9.05
same,Growth of Lactobacillus bulgaricus,"[3]; 0.50% MSM, 32 h",9.54
same,Growth of Lactobacillus bulgaricus,"[3]; 0.50% MSM, 40 h",9.40
same,Growth of Lactobacillus bulgaricus,"[3]; 0.50% MSM, 48 h",10.82
same,Growth of Lactobacillus bulgaricus,"[3]; 0.50% MSM, 56 h",9.14
same,Growth of Lactobacillus bulgaricus,"[3]; 0.50% MSM, 64 h",8.80
same,Growth of Lactobacillus bulgaricus,"[3]; 0.50% MSM, 72 h",6.72
same,Growth of Lactobacillus bulgaricus,"[3]; 1% MSM, 0 h",2.29
same,Growth of Lactobacillus bulgaricus,"[3]; 1% MSM, 8 h",4.83
same,Growth of Lactobacillus bulgaricus,"[3]; 1% MSM, 16 h",8.36
same,Growth of Lactobacillus bulgaricus,"[3]; 1% MSM, 24 h",9.03
same,Growth of Lactobacillus bulgaricus,"[3]; 1% MSM, 32 h",9.31
same,Growth of Lactobacillus bulgaricus,"[3]; 1% MSM, 40 h",9.34
same,Growth of Lactobacillus bulgaricus,"[3]; 1% MSM, 48 h",11.23
same,Growth of Lactobacillus bulgaricus,"[3]; 1% MSM, 56 h",8.11
same,Growth of Lactobacillus bulgaricus,"[3]; 1% MSM, 64 h",6.50
same,Growth of Lactobacillus bulgaricus,"[3]; 1% MSM, 72 h",6.45
same,Growth of Lactobacillus bulgaricus,"[3]; 5% MSM, 0 h",2.19
same,Growth of Lactobacillus bulgaricus,"[3]; 5% MSM, 8 h",3.28
same,Growth of Lactobacillus bulgaricus,"[3]; 5% MSM, 16 h",7.39
same,Growth of Lactobacillus bulgaricus,"[3]; 5% MSM, 24 h",8.50
same,Growth of Lactobacillus bulgaricus,"[3]; 5% MSM, 32 h",9.29
same,Growth of Lactobacillus bulgaricus,"[3]; 5% MSM, 40 h",9.37
same,Growth of Lactobacillus bulgaricus,"[3]; 5% MSM, 48 h",10.92
same,Growth of Lactobacillus bulgaricus,"[3]; 5% MSM, 56 h",10.07
same,Growth of Lactobacillus bulgaricus,"[3]; 5% MSM, 64 h",10.96
same,Growth of Lactobacillus bulgaricus,"[3]; 5% MSM, 72 h",8.62
same,Growth of Lactobacillus bulgaricus,"[3]; […] MSM, 0 h",2.26
same,Growth of Lactobacillus bulgaricus,"[3]; […] MSM, 8 h",4.57
same,Growth of Lactobacillus bulgaricus,"[3]; […] MSM, 16 h",8.09
same,Growth of Lactobacillus bulgaricus,"[3]; […] MSM, 24 h",9.01
same,Growth of Lactobacillus bulgaricus,"[3]; […] MSM, 32 h",9.15
same,Growth of Lactobacillus bulgaricus,"[3]; […] MSM, 40 h",9.27
same,Growth of Lactobacillus bulgaricus,"[3]; […] MSM, 48 h",11.37
same,Growth of Lactobacillus bulgaricus,"[3]; […] MSM, 56 h",8.23
same,Growth of Lactobacillus bulgaricus,"[3]; […] MSM, 64 h",8.75
same,Growth of Lactobacillus bulgaricus,"[3]; […] MSM, 72 h",6.51
same,Log Growth of Lactobacillus acidophilus,"[4]; 5.0% MSM, 20 min Gastric",<1.00 logs
same,Log Growth of Lactobacillus acidophilus,"[4]; 5.0% MSM, Hour 3, simulated intestinal fluid",1.62 logs
same,Log Growth of Lactobacillus acidophilus,"[4]; 5.0% MSM, Hour 8, simulated intestinal fluid",2.33 logs
same,Log Growth of Lactobacillus acidophilus,"[4]; 5.0% MSM, Hour 24, simulated intestinal fluid",6.39 logs
same,Log Growth of Lactobacillus acidophilus,"[4]; 5.0% MSM, Hour 30, simulated intestinal fluid",6.63 logs
same,Log Growth of Lactobacillus acidophilus,"[4]; 5.0% MSM, Hour 36, simulated intestinal fluid",8.65 logs
same,Log Growth of Lactobacillus acidophilus,"[4]; 5.0% MSM, Hour 48, simulated intestinal fluid",10.17 logs
same,Log Growth of Lactobacillus acidophilus,"[4]; 5.0% MSM, Hour 54, simulated intestinal fluid",13.33 logs
same,Log Growth of Lactobacillus acidophilus,"[4]; 5.0% MSM, Hour 60, simulated intestinal fluid",12.76 logs
same,Log Growth of Lactobacillus acidophilus,"[4]; 5.0% MSM, Hour 72, simulated intestinal fluid",12.78 logs
same,Log Growth of Lactobacillus acidophilus,"[4]; 5.0% MSM, Starting Inoculum",7.02 logs
same,log growth,"[4]; 5.0% MSM, hour 36",8.65 logs
same,increase in growth,"[4]; 5.0% MSM, period after hour 48",3.16 logs
same,Log Growth of Lactobacillus acidophilus,"[4]; […] MSM, 20 min Gastric",<1.00 logs
same,Log Growth of Lactobacillus acidophilus,"[4]; […] MSM, Starting Inoculum",6.86 logs
same,increase in growth,"[4]; […] MSM, hour 36 to 48",3.65 logs
